The subject of assay [1] is Mus musculus. The assay can be described thus: Induction of cytosolic Glutathione S-transferase activity per mg of protein in A/J mouse liver at 20 mg, po for once every 2 days for total three doses measured after 24 hrs of last dose. Type of assay: functional.
Assay [2] relates to Mus musculus. Nature of the assay: Induction of cytosolic Glutathione S-transferase activity per mg of protein in A/J mouse small bowel mucosa at 20 mg, po for once every 2 days for total three doses measured after 24 hrs of last dose. In kind it is functional.
In assay [3] the test system is Mus musculus. The assay can be described thus: Induction of cytosolic Glutathione S-transferase activity per mg of protein in A/J mouse forestomach at 20 mg, po for once every 2 days for total three doses measured after 24 hrs of last dose. In kind it is functional, Stomach.
Assay [4] concerns Mus musculus. Nature of the assay: Ratio of drug to control in induction of cytosolic Glutathione S-transferase activity per mg of protein in A/J mouse liver at 20 mg, po for once every 2 days for total three doses measured after 24 hrs of last dose. In kind it is functional.
The subject of assay [5] is Mus musculus. Nature of the assay: Ratio of drug to control in induction of cytosolic Glutathione S-transferase activity per mg of protein in A/J mouse small bowel mucosa at 20 mg, po for once every 2 days for total three doses measured after 24 hrs of last dose. Type of assay: functional.
Assay [6] deals with Mus musculus. The assay can be described thus: Ratio of drug to control in induction of cytosolic Glutathione S-transferase activity per mg of protein in A/J mouse forestomach at 20 mg, po for once every 2 days for total three doses measured after 24 hrs of last dose. Type of assay: functional, Stomach.

Take `C=C1CC[C@@H]2O[C@]2(C)CC[C@@H]2[C@@H]1CC2(C)C`: the Activity turned out to be 2.13 µmol/min in the assay on Mus musculus [1], 1.2 µmol/min with Mus musculus [2] and 0.59 µmol/min in the assay on Mus musculus [3]. Further, the Ratio in the assay on Mus musculus [4] worked out at 2.88; in the assay on Mus musculus [5], 4.8; in the assay on Mus musculus [6], 0.95.
On to `C/C1=C\CC[C@@]2(C)O[C@@H]2CC(C)(C)/C=C/C1`, for which the Activity was determined as 1.54 µmol/min with Mus musculus [1], 0.81 µmol/min in the assay on Mus musculus [2] and 0.77 µmol/min with Mus musculus [3]. Moreover, the Ratio with Mus musculus [4] turned out to be 2.08; in the assay on Mus musculus [5], 3.24; in the assay on Mus musculus [6] it was 1.24.
As for `C/C1=C\CC/C(C)=C/CC(C)(C)/C=C/C1` [ALPHA-HUMULONE], the Activity in the assay on Mus musculus [1] was found to be 1.47 µmol/min; in the assay on Mus musculus [2] it was 0.63 µmol/min; in the assay on Mus musculus [3] it was 0.63 µmol/min. Also, the Ratio in the assay with Mus musculus [4] amounted to 1.99; with Mus musculus [5] it was 2.52; with Mus musculus [6] it was 1.02.
Consider `C=C1CC/C=C(\C)CC[C@@H]2[C@@H]1CC2(C)C` [BETA-CARYOPHYLLENE], for which the Activity in the assay on Mus musculus [1] was determined as 1.92 µmol/min; with Mus musculus [2], 0.75 µmol/min; in the assay on Mus musculus [3], 0.77 µmol/min. Besides, the Ratio is on record as 2.59 in the assay on Mus musculus [4], 3 in the assay with Mus musculus [5] and 1.24 in the assay with Mus musculus [6].
`C=CCc1ccc(O)c(OC)c1` [EUGENOL]: the Activity with Mus musculus [1] came to 0.93 µmol/min; in the assay with Mus musculus [2] it was 0.59 µmol/min; in the assay on Mus musculus [3], 0.75 µmol/min. Besides, the Ratio was determined as 1.26 in the assay with Mus musculus [4], 2.36 with Mus musculus [5] and 1.21 in the assay with Mus musculus [6].

Values taken from ChEMBL document CHEMBL1149727, “Sesquiterpenes from clove (Eugenia caryophyllata) as potential anticarcinogenic agents” (1992).
